Measured values reported in patent US20240197677A1 (VIVIER CANADA INC., priority 2016, published 2024).

Key:
[1] = cited from earlier work
[2] = system: EpiDermFT™ (EFT-400) human in vitro tissue model
Procedure: EFT-400 tissues were treated with test compound every 48 hours for 4, 7 and 10 days.
Epidermal thickness was assessed by measuring 10 random regions of the Hematoxylin and Eosin (H&E) stained tissue sections using OlyVIA™ software.

Structure (SMILES): Cl.Cl.NCCCCN [putrescine, 1,4-Diaminobutane dihydrochloride]
- pKa [1]: 10.51
- Thickness of H&E stained tissue sections (FIGS. 1A-F) ([2]; 0.1% Putrescine for 4 days): increased thickness
- Epidermis Thickness, Tissue1, Av. ([2]; 0.1% Test Article, EFT-400 Tissue1, average of 10 regions): 113.846 μm
- Epidermis Thickness, Tissue2, Av. ([2]; 0.1% Test Article, EFT-400 Tissue2, average of 10 regions): 117.160 μm
- Epidermis Thickness, Tissue3, Av. ([2]; 0.1% Test Article, EFT-400 Tissue3, average of 10 regions): 121.676 μm
- Epidermis Thickness, Av. of three tissues ([2]; 0.1% Test Article, average over Tissue1-3 (untreated 80.264 μm)): 117.561 μm
- Average increase of epidermal thickness versus untreated tissues ([2]; 0.1% putrescine): over 46%
- Epidermal thickness, average ([2]; 0.1% putrescine basolaterally in culture medium, 10 random regions of H&E sections): 117.561 μm
- Epidermal tissue thickness, visual (Cytokeratin 10 / desmoplakin-1 immunostaining) ([2]; after 4 days, 0.1% Putrescine): visually appear thicker than the untreated control tissues
- Tissue morphology ([2]; day 4, 0.1% Putrescine): consistent with healthy tissue

Structure (SMILES): O=C1O[C@H]([C@@H](O)CO)C(O)=C1O [Vitamin C, L-ascorbic acid, reference compound]
- pKa [1]: around 4.17
